The structures appear in SMILES notation. In brackets after ≈: the same amount, converted by molar mass.

The conditions of this data set: buffer; pH 7.4; 200.0 µM.
For the compound `Cn1cccc1/C=C1/SC(=O)N(CC(=O)N2CCCC2)C1=O`, the solubility (kinetic) – broadly, the concentration staying in solution when a stock, usually in DMSO, is diluted into the medium – stood at 0.0152 mg/mL (≈ 47.6 µM).
`CC(=O)NCCc1nc2ccccc2n1Cc1ccc(Cl)cc1` came in with a solubility (kinetic) greater than 0.0492 mg/mL.
Compound `Cc1ccc(OCC2Cn3c(nc4c3c(=O)[nH]c(=O)n4C)O2)cc1C` (configuration not stated) showed a solubility (kinetic) of 0.0034 mg/mL (≈ 9.93 µM).
For the compound `Cc1cccc(CSc2nnc([C@@H]3CCCN3)o2)c1.Cl`, the solubility (kinetic) is greater than 0.0468 mg/mL.
Compound `CN(c1ccc(C(=O)COC(=O)C2CC2)cc1)S(C)(=O)=O` displayed a solubility (kinetic) greater than 0.0467 mg/mL.
`CC(C)CCC1(C)NC(=O)N(CC(=O)Nc2ccc3c(c2)OCCO3)C1=O` (configuration not stated) gave a solubility (kinetic) of 0.0496 mg/mL (≈ 132 µM).
As to `COc1cccc(OC)c1C(=O)Nc1sc2c(c1C(N)=O)CCCC2`, the kinetic solubility was 0.025 mg/mL (≈ 69.4 µM).
As to `O=C(O)COCC(=O)N1CCCN(c2nc3ccc(Cl)cc3s2)CC1`, the solubility (kinetic) is greater than 0.0576 mg/mL.
On to `Cl.N=c1n(CCO)c2ccccc2n1CCN1CCCCC1`, for which the kinetic solubility was greater than 0.0487 mg/mL.
On to `CCCN1CCC(N2CCCC(C(=O)O)C2)CC1.Cl` (configuration not stated), for which the solubility (kinetic) was greater than 0.0491 mg/mL.
On to `COc1ccc(OC)c(/C=C/c2c([N+](=O)[O-])c(=O)n(C)c(=O)n2C)c1`, for which the kinetic solubility worked out at 0.0034 mg/mL (≈ 9.79 µM).
For the compound `Cc1ccccc1CC(=O)Nc1cccnc1`, the kinetic solubility was greater than 0.0339 mg/mL.
Take `O=C(NCCNC(=O)c1ccc(Cl)cc1Cl)c1ccccn1`: the kinetic solubility was found to be 0.0434 mg/mL (≈ 128 µM).
Then `CCOC(OCC)c1ccc(/C=C\c2nccc(N)n2)cc1`, with 0.0137 mg/mL (≈ 45.8 µM); and `CCn1c(SCc2ccccc2)nc2ccccc2c1=O`, with 0.0013 mg/mL (≈ 4.39 µM); and `Cc1cccc(C)c1OCC(O)CN1CCCCC1.Cl` (configuration not stated), with 0.0434 mg/mL.
In turn, `Cc1ccccc1NC(=O)NCC1CCN(C(=O)OC(C)(C)C)CC1` displayed a solubility (kinetic) greater than 0.0521 mg/mL.
`Cl.O=C(CNCc1ccccc1)NC1C2CC3CC(C2)CC1C3` (configuration not stated): the solubility (kinetic) turned out to be 0.0502 mg/mL.
Compound `CCN1CCN(CC(=O)Nc2cc(S(=O)(=O)N(CC)c3ccccc3)ccc2Cl)CC1.Cl` showed a solubility (kinetic) greater than 0.0752 mg/mL.
For `O=c1c2cc(Br)ccc2nc(-c2ccccc2)n1O`, the kinetic solubility was 0.0394 mg/mL (≈ 124 µM).
`Cc1ccc(C)c(CN2CCSCC2)c1` registered a solubility (kinetic) of 0.0021 mg/mL (≈ 9.49 µM).
Then `COc1ccc2oc(=N)c(C(=O)NCc3ccccc3)cc2c1`, with 0.0031 mg/mL (≈ 10.1 µM); and `CCOC(=O)c1cc2c(=O)[nH]c(C(Cl)(Cl)Cl)nc2o1`, with greater than 0.0488 mg/mL.
As for `CC(C)(C)OC(=O)N1Cc2[nH]c3ccccc3c2C[C@@H]1C(=O)O`, the figure is greater than 0.0475 mg/mL.
The compound `Cc1[nH]c(=O)[nH]c(=O)c1NC(=O)c1ccc(OC(C)C)cc1` came in with a solubility (kinetic) greater than 0.0455 mg/mL.
The compound `S=C(Nc1cccc(Cl)c1Cl)N1CCCC1` yielded a kinetic solubility of 0.0157 mg/mL (≈ 57 µM).
`O=C(CN1CCCCCC1)Nc1ccccc1OC(F)F`: the kinetic solubility came out at 0.0445 mg/mL (≈ 149 µM).
`COc1cccc(Oc2c(C)oc3c(CN4CCCC4)c(O)ccc3c2=O)c1`: the kinetic solubility amounted to 0.0406 mg/mL (≈ 106 µM).
In turn, `CCCCS(=O)(=O)N1CCC(C(=O)Oc2ccc(Cl)cc2)CC1` had a kinetic solubility of 0.0017 mg/mL (≈ 4.72 µM).
As for `Cc1nc2ccccc2n1Cc1ccccc1Br`, the figure is 0.026 mg/mL (≈ 86.3 µM); as for `c1ccc2c(OCCCCN3CCCC3)cccc2c1`, 0.0401 mg/mL (≈ 149 µM).
In turn, `CSc1ncccc1C(=O)OCC(=O)c1cc(C)n(C)c1C` came in with a solubility (kinetic) of 0.0039 mg/mL (≈ 12.2 µM).
Then `CC(NC(=O)C(C)(C)C)C(c1cccs1)N1CCOCC1` (configuration not stated), with greater than 0.0466 mg/mL.
As to `CC(=O)N1CCN(c2ccc(NC(=O)c3ccccc3)cc2)CC1`, the kinetic solubility amounted to 0.0405 mg/mL (≈ 125 µM).
`CC(C)[C@H](N[C@@H](C)c1ccccc1)c1c(O)ccc2ccccc12` had a solubility (kinetic) of 0.0022 mg/mL (≈ 6.89 µM).
Take `Cc1ccc2c(COC(=O)CNC(=O)c3ccco3)cc(=O)oc2c1C`: the solubility (kinetic) came out at 0.0131 mg/mL (≈ 36.9 µM).
`CCc1ccc(C(C)NC(=O)C2CCCO2)cc1` (configuration not stated) gave a kinetic solubility of 0.0349 mg/mL (≈ 141 µM).
In turn, `Cc1cc(S(=O)(=O)NCc2cccnc2)ccc1F` displayed a kinetic solubility of 0.0337 mg/mL (≈ 120 µM).
With `COC(=O)c1cccc(NC(=O)C(C)(C)C)c1`, the kinetic solubility is greater than 0.0353 mg/mL.
The compound `COc1ccc(-c2csc(Nc3cccc(C)n3)n2)cc1` displayed a solubility (kinetic) of less than 0.0002 mg/mL.
Take `Nc1nc(Nc2ccccc2F)nc(NC2CCCCC2)c1[N+](=O)[O-]`: the solubility (kinetic) was less than 0.0001 mg/mL.
`Cl.NC(N)=NC(N)=NCCc1ccccc1` had a kinetic solubility greater than 0.0363 mg/mL.
`O=C1NC2(CCCCCCC2)C(=O)N1Cc1ccc(F)cc1` yielded a kinetic solubility of 0.0105 mg/mL (≈ 34.5 µM).
For the compound `COC(=O)c1sccc1S(=O)(=O)Nc1ccc(C)cc1`, the kinetic solubility was 0.005 mg/mL (≈ 16.1 µM).
As for `CC(C)Cn1c(N)c(C=O)c(=O)n(C)c1=O`, the figure is greater than 0.0338 mg/mL.
`C=CCNC(=S)N1CCN(CCNC2=CC(=O)CC(C)(C)C2)CC1` had a kinetic solubility greater than 0.0526 mg/mL.
Compound `CC1CCC(NS(=O)(=O)c2ccc3c(c2)CC(=O)N3)CC1` (configuration not stated) returned a kinetic solubility of 0.0273 mg/mL (≈ 88.5 µM).
The compound `CC1(C)C(=O)Nc2ccccc2N1C(=O)COC(=O)c1cccnc1Cl` had a solubility (kinetic) greater than 0.0561 mg/mL.
Compound `O=C(COC(=O)c1ccc(Br)o1)NC12CC3CC(CC(C3)C1)C2` came in with a kinetic solubility of 0.0343 mg/mL (≈ 89.7 µM).
Compound `O=C(N/N=C/c1ccc2c(c1)OCO2)C1CC1` displayed a solubility (kinetic) greater than 0.0348 mg/mL.
The compound `CC(C)NC(=O)c1ccc(-n2c(=S)[nH]c3ccccc3c2=O)cc1` showed a solubility (kinetic) of 0.0039 mg/mL (≈ 11.5 µM).
Regarding `CNC(=O)c1cc(C(=O)c2ccc(C(F)(F)F)cc2)c[nH]1`, the solubility (kinetic) was determined as 0.0018 mg/mL (≈ 6.08 µM).
`Cc1cccc(NC(=O)c2ccc(N3CCOCC3)c([N+](=O)[O-])c2)n1`: the kinetic solubility came to 0.0381 mg/mL (≈ 111 µM).
In turn, `CCC(CC)C(=O)Nc1cccc(C(=O)NC(C)(C)C)c1` gave a solubility (kinetic) greater than 0.0436 mg/mL.
Regarding `O=C(O)CCc1ccc(S(=O)(=O)Nc2ccccc2N2CCCCC2)cc1`, the kinetic solubility was greater than 0.0583 mg/mL.
Consider `COc1ccc(S(=O)(=O)N(Cc2ccccc2)c2ccccc2C(=O)O)cc1`, for which the solubility (kinetic) is 0.0537 mg/mL (≈ 135 µM).
Regarding `CCc1cc2cccc(C)c2nc1SCC(=O)NC1CCCC1`, the solubility (kinetic) is less than 0.0004 mg/mL.
As for `C/C=C/C(=O)N1c2ccc(C)cc2C(C)=CC1(C)C`, the kinetic solubility came out at 0.0012 mg/mL (≈ 4.7 µM).
As for `C=CCOc1ccc(/C=C2\SC(N)=NC2=O)cc1OC`, the solubility (kinetic) was determined as 0.0057 mg/mL (≈ 19.6 µM). Compared with the last compound, the solubility kinetic is about 4.8-fold higher.
As for `Cc1ccc(C)c(CSC2=NCCN2C(=O)c2cccs2)c1`, the figure is 0.001 mg/mL (≈ 3.03 µM); as for `CCc1cccc(C)c1N=Cc1c(O)c2ccccc2oc1=O`, 0.0009 mg/mL (≈ 2.93 µM); as for `CN1N=C(C(=O)Nc2ccc3c(c2)CCC3)CCC1=O`, greater than 0.0407 mg/mL.
Take `Cc1ccc(-n2c(SCC(N)=O)nnc2-c2cnccn2)cc1`: the kinetic solubility is greater than 0.049 mg/mL.
Compound `CCOC(=O)c1ccccc1NC(=O)c1ccc2nc[nH]c2c1` registered a solubility (kinetic) of 0.0113 mg/mL (≈ 36.5 µM).
`O=C(Nc1cscc1S(=O)(=O)c1ccc(Cl)cc1)c1ccccc1Cl` had a solubility (kinetic) of 0.0026 mg/mL (≈ 6.31 µM).
`O=S(=O)(c1ccc(F)cc1)N1CCN(CCc2ccccc2)CC1` showed a solubility (kinetic) of 0.0041 mg/mL (≈ 11.8 µM).
Regarding `O=C(CNC(=O)c1ccncc1)N/N=C/c1ccc(Br)cc1`, the kinetic solubility is greater than 0.0542 mg/mL.
With `Cc1ccc(Oc2ccc(C(F)(F)F)cc2[N+](=O)[O-])c([N+](=O)[O-])n1`, the kinetic solubility is 0.0072 mg/mL (≈ 21 µM).
Then `O=C(O)c1ccc(/C=N/Nc2ncc(Cl)cc2Cl)cc1`, with greater than 0.0465 mg/mL.
Compound `COc1ccc(OCC(=O)NS(=O)(=O)c2ccccc2)cc1` returned a solubility (kinetic) greater than 0.0482 mg/mL.
With `O=C(CS(=O)(=O)c1ccccc1)Nc1ccc(Cl)cn1`, the solubility (kinetic) is greater than 0.0466 mg/mL.
In the case of `O=C(CN1CCOCC1)NCCc1ccccc1`, the solubility (kinetic) is greater than 0.0372 mg/mL.
`O=C(Nc1ccccc1)[C@@H]1CCCN1S(=O)(=O)c1ccc(Cl)cc1` yielded a kinetic solubility of 0.0068 mg/mL (≈ 18.6 µM).
Then `CC(C)OCCCNC(=O)CN1C(=O)c2cccc3cccc1c23`, with greater than 0.049 mg/mL; and `Cc1ccc2[nH]cc(CCNC(=O)/C=C/c3ccco3)c2c1`, with 0.0369 mg/mL (≈ 125 µM).
Then `O=C(NC1CCCCCC1)c1ccc(Br)o1`, with 0.0277 mg/mL (≈ 96.8 µM).
`CCn1c(SCC(=O)N2CCCC2)nc2ccccc21` came in with a kinetic solubility greater than 0.0434 mg/mL.
The compound `O=C(COC(=O)[C@@H]1CC(O)CN1S(=O)(=O)c1ccc2c(c1)OCCO2)Nc1cc(F)ccc1F` (some centres not stated) registered a kinetic solubility greater than 0.0748 mg/mL.
Compound `C=CCn1cc(C=C2C(=O)NC(=O)NC2=O)c2ccccc21` yielded a solubility (kinetic) of 0.0036 mg/mL (≈ 12.2 µM).
As for `Cc1cccnc1NC(=O)CNC(=O)COc1ccccc1`, the kinetic solubility was greater than 0.0449 mg/mL.
As for `CC(=O)O.O=S(=O)(Cc1ccccc1)N1CCNCC1`, the figure is 0.0343 mg/mL; as for `O=C(CNC(=O)c1ccc(Cl)cc1Cl)OC1CCCCC1=O` (configuration not stated), 0.0394 mg/mL (≈ 114 µM).
On to `COc1ccc(OCC(O)CNS(=O)(=O)c2cccs2)cc1` (configuration not stated), for which the solubility (kinetic) was greater than 0.0515 mg/mL.
As for `CC(C)Cn1c(SCC(=O)Nc2ccc(Cl)cc2F)nc(O)cc1=O`, the figure is greater than 0.0579 mg/mL; as for `Cc1cccc(OC(C)C(=O)Nc2ccc(S(=O)(=O)N3CCCC3)cc2)c1` (configuration not stated), 0.0164 mg/mL (≈ 42.2 µM).
As for `NC(=O)C1CCN(C(=O)C2CC(=O)N(c3ccc(F)cc3)C2)CC1` (configuration not stated), the figure is 0.0265 mg/mL (≈ 79.5 µM); as for `Cc1ccsc1/C=C(\CC(=O)O)c1nc2ccccc2o1`, greater than 0.0449 mg/mL.
As for `O=C(NCCNC(=O)c1ccc(Cl)cc1Cl)c1cnccn1`, the kinetic solubility was determined as 0.037 mg/mL (≈ 109 µM).
Consider `NS(=O)(=O)c1cccc(NC(=O)CN2C(=O)C(=O)N(Cc3ccccc3)C2=O)c1`, for which the solubility (kinetic) amounted to 0.0605 mg/mL (≈ 145 µM).
Take `Cc1cnc(=O)[nH]c1SCc1cccc(C(F)(F)F)c1`: the solubility (kinetic) was 0.0083 mg/mL (≈ 27.6 µM).
As to `Cc1nc(/C(N)=N/OC(=O)c2ccc(Cl)cc2)c(C(F)(F)F)o1`, the kinetic solubility stood at 0.017 mg/mL (≈ 48.9 µM).
Regarding `O=C(c1ccc(F)cc1)N1CCN(c2ccccn2)CC1`, the solubility (kinetic) was greater than 0.0428 mg/mL.
As for `CN(C)CCOc1cccc(Br)c1.O=C(O)C(=O)O`, the figure is 0.0446 mg/mL; as for `O=C(Nc1ccc(F)cc1)c1cccnn1`, greater than 0.0326 mg/mL.
In turn, `COC(=O)c1sccc1NC(=O)COc1cccc(C)c1` yielded a kinetic solubility of less than 0.0007 mg/mL.
Then `CCS(=O)(=O)N1CCC(C(=O)Oc2ccccc2OC)CC1`, with greater than 0.0491 mg/mL; and `N#C/C(=C(/O)c1cccc(F)c1)c1nc2ccccc2s1`, with 0.0178 mg/mL (≈ 60.1 µM); and `CC(=O)c1sc2nsc(SCCN3CCCCC3)c2c1N`, with 0.0475 mg/mL (≈ 139 µM).
As for `CCOc1ccc(NC(=O)CSc2ccccc2N)cc1`, the figure is greater than 0.0454 mg/mL.
Then `COC(=O)c1ccc(S(=O)(=O)N2CCC(O)CC2)n1C`, with greater than 0.0454 mg/mL; and `CCC1CCCCN1CC(O)COCc1cccc(OC)c1` (configuration not stated), with 0.0314 mg/mL (≈ 102 µM); and `N/C(=N\OC(=O)c1cccc(Br)c1)c1ccc([N+](=O)[O-])cc1`, with 0.0014 mg/mL (≈ 3.84 µM).

For the origin of these results see PubChem BioAssay AID1996.
